Results as given in US4333934A, “Imidazoquinoxalines and pyrroloquinoxalines” (Roussel Uclaf, priority 1979, dated 1982).
Counter-ions that a name gives are not always drawn. Like-named read-outs stand apart in the source and are kept apart here.

Key:
[1] = system: Passive cutaneous anaphylaxis (PCA) in rats; experiment: Passive cutaneous anaphylaxis (PCA) in rats; assay type: in vivo, rat; details: for ED50: Rattus norvegicus
Source text: Cutaneous anaphylaxis was induced in groups of male rats weighing 180-220 g by intradermal (ID) sensitization with antiserum followed three days later by systemic challenge with antigen. Evans blue dye injected with the antigen was used as a marker to assess the severity of the local response. Anti-allergic drugs inhibit this reaction and this method is described by OVARY [(1962) in "Passive cutaneous Anaphylaxis in Allergology" 358-367 Ed. Brown: Pergamon Press:].
1. Wash 120 grams Al (OH)3 gel in 140 ml of saline (use of a macerater facilitates mixing).
2. Centrifuge at 3,000 r.p.m. for about 10 minutes.
3. Resuspend the precipitate with 300 ml of albumen egg powder (1.3 mg/ml) in saline and allow to stand for 30 minutes.
4. Centrifuge at 3,000 r.p.m. for 10 minutes.
5. Weigh the wet precipitate and to each gram weight, add 1 ml of saline. Store in refrigerator. (Quantity sufficient for 60 rats for a 3 day sensitization programme).
1. 1 ml of the alum precipitated ovalbumen was injected subcutaneously into 180-220 gram rats on days 0,2,4.
2. The rats were bled on day 14 either by cardiac puncture or via the dorsal abdominal aorta.
3. Equal quantities of serum from each animal were pooled and thoroughly mixed.
4. 2 ml aliquots were stored at -20° C. in plastic tubes.
The antiserum for sensitization was diluted so that an ID injection of 0.1 ml into control animals gave an average score of a single spot of between 2.0-3.5 using a 5 point scoring system (0,1,2,3,4).
Rats were anaesthetised with Nembutal (40-60 mg/kg i.p.) and were then sensitized by four ID injections (0.1 ml each) on shaved backs. The animals were then left for a period of three days to develop sensitization.
The sensitized rats were dosed orally or intraveneously with the drug immediately prior to intraveneous challenge via the superficial penile vein with 1 ml of an antigen/Evans blue mixture (1 mg albumen egg powder in 0.5 ml saline plus 0.5 ml of 1% Evans blue). The injections were speeded up by using an automatic 1 ml self-filling glass syringe. The "challenged" rats were killed after 30 minutes, (usually pithed) and their skin on the dorsal surface was removed. The degree and area of blueing, proportional to the anaphylactic reaction was assessed on a five point scoring system.
1. Total scores for sites 1,2,3 and 4=X
2. Mean value of X for each group=X

[2] = Solubility remark (footnote of Table 1); assay type: physicochemical; details: all solvents
[3] = iv, read-out: ED50 (dose of drug giving 50% inhibition), i.v., dosed immediately prior to intravenous antigen challenge, male rats
[4] = po, read-out: ED50 (dose of drug giving 50% inhibition), p.o., dosed immediately prior to intravenous antigen challenge, male rats

For `OCc1cn2c(cnc3ccccc32)n1` [2 (as hydrochloride), Imidazo-[1,2-a]-quinoxaline-2-methanol], the ED50 [1, 3] was 0.16 mg/kg and the ED50 [1, 4] was 0.068 mg/kg.

With `c1ccc2c(c1)ncc1nc(-c3nnn[nH]3)cn12` [3 (as hydrochloride), 2-(1H-tetrazol-5-yl)-imidazo-[1,2-a]-quinoxaline] the ED50 [1, 4] was 0.084 mg/kg and the “ED50 (dose of drug giving 50% inhibition), p.o.” value ([1]; p.o., dosed immediately prior to intravenous antigen challenge, male rats) was 0.089 mg/kg.

In the case of `Clc1ccc2c(Cl)cc3nc(-c4nnn[nH]4)cn3c2c1` [11 Step C], the “solubility (in words)” value [2] was “extremely insoluble in all solvents”.

Work on `OCc1cn2c(ccc3ccccc32)n1` [Example 5, Imidazo-[1,2-a]-quinoline-2-methanol] yielded an ED50 [1, 4] of 0.36 mg/kg.

`O=Cc1cn2c(ccc3ccccc32)n1` [Example 6, Imidazo-[1,2-a]-quinoline-2-carboxaldehyde] gave an ED50 [1, 4] of 0.09 mg/kg.

Compound `c1ccc2c(c1)ccc1nc(-c3nnn[nH]3)cn12` [Example 7, 2-(1H-tetrazol-5-yl)-imidazo-[1,2-a]-quinoline] has an ED50 [1, 3] of 0.026 mg/kg and an ED50 [1, 4] of 0.105 mg/kg.

`NCc1cn2c(ccc3ccccc32)n1` [Example 8, Imidazo-[1,2-a]-quinoline-2-methanamine dihydrochloride] showed an ED50 [1, 3] of 0.11 mg/kg and an ED50 [1, 4] of 0.98 mg/kg.

`COc1ccc2ccc3nc(CO)cn3c2c1` [Example 12] gave an ED50 [1, 3] of 0.27 mg/kg and an ED50 [1, 4] of 0.24 mg/kg.

Work on `COc1ccc2ccc3nc(C=O)cn3c2c1` [Example 13] yielded an ED50 [1, 3] of 0.12 mg/kg and an ED50 [1, 4] of 0.4 mg/kg.

`COc1ccc2ccc3nc(-c4nnn[nH]4)cn3c2c1` [Example 14, 8-methoxy-2-(1H-tetrazol-5-yl)-imidazo-[1,2-a]-quinoline] showed an ED50 [1, 3] of 0.01 mg/kg and an ED50 [1, 4] of 0.12 mg/kg.

Compound `COc1ccc2ccc3nc(CN)cn3c2c1` [Example 15] has an ED50 [1, 3] of 3.39 mg/kg.

`CCn1c(=O)c2nc(CO)cn2c2ccccc21` [Example 21, 5-ethyl-2-hydroxymethyl-imidazo-[1,2-a]-quinoxaline-4-(5H)-one] gave an ED50 [1, 4] of 0.062 mg/kg.

In the case of `CCn1c(=O)c2nc(C=O)cn2c2ccccc21` [Example 22, 4,5-dihydro-5-ethyl-4-oxo-imidazo-[1,2-a]-quinoxaline-2-carboxaldehyde], the ED50 [1, 4] was 0.077 mg/kg.

Compound `CCn1c(=O)c2cc(CO)cn2c2ccccc21` [Example 24, 5-ethyl-2-hydroxymethyl-pyrrolo-[1,2-a]-quinoxaline-4(5H)-one] has an ED50 [1, 4] of 0.045 mg/kg.

For `CCn1c(=O)c2cc(-c3nnn[nH]3)cn2c2ccccc21` [Example 26, 5-ethyl-2-(1H-tetrazol-5-yl)-pyrrolo-[1,2-a]-quinoxaline-4(5H)-one], the ED50 [1, 3] was 0.011 mg/kg and the ED50 [1, 4] was 0.439 mg/kg.

`c1ccc2c(c1)OCc1nc(-c3nnn[nH]3)cn1-2` [Example 30, 4H-2-(1H-tetrazol-5-yl)-imidazo-[2,1-c][1,4]-benzoxazine] gave an ED50 [1, 3] of 0.33 mg/kg.
